# Experiments:
# [1] = target: T1, human adenosine A2b receptor (Homo sapiens, UniProt P29275); assay: Cellular reporter gene (CRE-luciferase) A2b receptor antagonist assay in recombinant CHO-K1 cells stimulated with NECA; assay type: cell-based; conditions: recombinant CHO-K1 cell line, co-incubation with EC50 concentration of NECA, 3 hours, in some cases means, rounded to two significant digits
# T1 construct: expressed in transfected cells; host or cells: CHO-K1 (Chinese Hamster Ovary) with CRE-luciferase reporter
# T1 sequence (P29275 1-332): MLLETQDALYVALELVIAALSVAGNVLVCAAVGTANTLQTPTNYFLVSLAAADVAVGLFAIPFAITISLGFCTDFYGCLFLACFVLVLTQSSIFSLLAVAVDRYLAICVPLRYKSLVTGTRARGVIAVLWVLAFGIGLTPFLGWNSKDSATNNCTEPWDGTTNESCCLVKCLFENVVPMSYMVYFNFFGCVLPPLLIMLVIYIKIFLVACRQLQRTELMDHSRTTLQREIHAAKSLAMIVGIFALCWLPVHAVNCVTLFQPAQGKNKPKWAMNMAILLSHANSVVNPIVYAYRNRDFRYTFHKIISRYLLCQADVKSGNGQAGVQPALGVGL
# Method in brief: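 CHO-K1 cells expressing human A2b receptor with a CRE-driven firefly luciferase reporter, co-incubated with test compound and NECA at its same-day EC50 concentration. Luminescence read 3 hours after NECA addition.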
# [2] = system: IL-6 release by human fibroblast cell line LL29; assay: NECA-induced IL-6 release by LL29 fibroblasts (ELISA); assay type: cell-based; conditions: NECA 10 μM, 24 hours incubation, IL-6 ELISA of supernatant, in some cases means, rounded to two significant digits
# Procedure: B-2. Measurement of NECA-Induced IL-6 Release by LL29 Fibroblasts
# Stimulation of fibroblasts with adenosine or the adenosine analog 5′-N-ethylcarboxamidoadenosine (NECA) leads to release of the pro-inflammatory and pro-fibrotic cytokine IL-6 which can be prevented by inhibition of the A2b receptor.
# Accordingly, confluent cells of the human fibroblast cell line LL29 were treated with the test substances and stimulated with NECA (10 μM). After an incubation time of 24 hours, the cell supernatant is removed and human IL-6 in the cell supernatant is determined by ELISA (Quantikine® IL6 ELISA, R&D Systems, Minneapolis, USA).
IC50 [1],Structure (SMILES),IC50 [2]
0.021 µM,"Cc1c(C(=O)N2CCNC(=O)C2)sc2c1c(=O)n(CCc1ccccc1F)c(=O)n2CCC(F)(F)F [Example 29, 3-[2-(2-Fluorophenyl)ethyl]-5-methyl-6-[(3-oxopiperazin-1-yl)carbonyl]-1-(3,3,3-trifluoropropyl)thieno[2,3-d]pyrimidine-2,4(1H,3H)-dione]",0.023 µM
0.016 µM,"Cc1c(C(=O)N2CCNC(=O)C2)sc2c1c(=O)n(CCc1ccccc1Cl)c(=O)n2CCC(F)(F)F [Example 31, 3-[2-(2-Chlorophenyl)ethyl]-5-methyl-6-[(3-oxopiperazin-1-yl)carbonyl]-1-(3,3,3-trifluoropropyl)thieno[2,3-d]pyrimidine-2,4(1H,3H)-dione]",0.016 µM
0.11 µM,"Cc1c(C(=O)N2CCNC(=O)C2)sc2c1c(=O)n(CCc1ccccc1Cl)c(=O)n2CCC=C(F)F [Example 32, 3-[2-(2-Chlorophenyl)ethyl]-1-(4,4-difluorobut-3-en-1-yl)-5-methyl-6-[(3-oxopiperazin-1-yl)carbonyl]thieno[2,3-d]pyrimidine-2,4(1H,3H)-dione]",0.23 µM
0.067 µM,"Cc1c(C(=O)N2CCNC(=O)C2)sc2c1c(=O)n(CCc1cccnc1)c(=O)n2CCC(F)(F)F [Example 33, 5-Methyl-6-[(3-oxopiperazin-1-yl)carbonyl]-3-[2-(pyridin-3-yl)ethyl]-1-(3,3,3-trifluoropropyl)thieno[2,3-d]pyrimidine-2,4(1H,3H)-dione]",0.14 µM
0.012 µM,"CC(C)Cn1c(=O)c2c(C(F)F)c(C(=O)N3CCC(O)CC3)sc2n(CCOC(F)(F)F)c1=O [Example 137, 5-(Difluoromethyl)-6-[(4-hydroxypiperidin-1-yl)carbonyl]-3-isobutyl-1-[2-(trifluoromethoxy)ethyl]thieno[2,3-d]pyrimidine-2,4(1H,3H)-dione]",–
0.015 µM,"CC(C)Cn1c(=O)c2c(C(F)F)c(C(=O)N3CCC(C)(O)CC3)sc2n(CCOC(F)(F)F)c1=O [Example 138, 5-(Difluoromethyl)-6-[(4-hydroxy-4-methylpiperidin-1-yl)carbonyl]-3-isobutyl-1-[2-(trifluoromethoxy)ethyl]thieno[2,3-d]pyrimidine-2,4(1H,3H)-dione]",–
0.039 µM,"CC(C)Cn1c(=O)c2c(C(F)F)c(C(=O)N3CCC(O)CC3)sc2n(CCC(F)(F)F)c1=O [Example 139, 5-(Difluoromethyl)-6-[(4-hydroxypiperidin-1-yl)carbonyl]-3-isobutyl-1-(3,3,3-trifluoropropyl)thieno[2,3-d]pyrimidine-2,4(1H,3H)-dione]",–
0.039 µM,"CC(C)Cn1c(=O)c2c(C(F)F)c(C(=O)N3CCC(C)(O)CC3)sc2n(CCC(F)(F)F)c1=O [Example 140, 5-(Difluoromethyl)-6-[(4-hydroxy-4-methylpiperidin-1-yl)carbonyl]-3-isobutyl-1-(3,3,3-trifluoropropyl)thieno[2,3-d]pyrimidine-2,4(1H,3H)-dione]",–
0.057 µM,"CCCn1c(=O)c2c(C(F)F)c(C(=O)N3CCC(O)CC3)sc2n(CCC(F)(F)F)c1=O [Example 141, 5-(Difluoromethyl)-6-[(4-hydroxypiperidin-1-yl)carbonyl]-3-propyl-1-(3,3,3-trifluoropropyl)thieno[2,3-d]pyrimidine-2,4(1H,3H)-dione]",–
0.053 µM,"CCCn1c(=O)c2c(C(F)F)c(C(=O)N3CCC(C)(O)CC3)sc2n(CCC(F)(F)F)c1=O [Example 142, 5-(Difluoromethyl)-6-[(4-hydroxy-4-methylpiperidin-1-yl)carbonyl]-3-propyl-1-(3,3,3-trifluoropropyl)thieno[2,3-d]pyrimidine-2,4(1H,3H)-dione]",–
0.082 µM,"CCn1c(=O)c2c(CF)c(C(=O)N3CCC(O)CC3)sc2n(CCC(F)(F)F)c1=O [Example 143, 3-Ethyl-5-(fluoromethyl)-6-[(4-hydroxypiperidin-1-yl)carbonyl]-1-(3,3,3-trifluoropropyl)thieno[2,3-d]pyrimidine-2,4(1H,3H)-dione]",–
0.17 µM,"CCn1c(=O)c2c(CF)c(C(=O)N3CCC(C)(O)CC3)sc2n(CCC(F)(F)F)c1=O [Example 144, 3-Ethyl-5-(fluoromethyl)-6-[(4-hydroxy-4-methylpiperidin-1-yl)carbonyl]-1-(3,3,3-trifluoropropyl)thieno[2,3-d]pyrimidine-2,4(1H,3H)-dione]",–
0.0098 µM,"CCCn1c(=O)c2c(C(F)F)c(C(=O)N3CCC(O)CC3)sc2n(CCOC(F)(F)F)c1=O [Example 150, 5-(Difluoromethyl)-6-[(4-hydroxypiperidin-1-yl)carbonyl]-3-propyl-1-[2-(trifluoromethoxy)ethyl]thieno[2,3-d]pyrimidine-2,4(1H,3H)-dione]",–
0.014 µM,"CCCn1c(=O)c2c(C(F)F)c(C(=O)N3CCC(C)(O)CC3)sc2n(CCOC(F)(F)F)c1=O [Example 151, 5-(Difluoromethyl)-6-[(4-hydroxy-4-methylpiperidin-1-yl)carbonyl]-3-propyl-1-[2-(trifluoromethoxy)ethyl]thieno[2,3-d]pyrimidine-2,4(1H,3H)-dione]",–

# The next lines start with the compound.
Structure (SMILES),IC50 [1],IC50 [2]
"Cc1c(C(=O)N2CCC(O)CC2)sc2c1c(=O)n(CCc1ccccc1)c(=O)n2CCC(F)(F)F [Example 1, 6-[(4-Hydroxypiperidin-1-yl)carbonyl]-5-methyl-3-(2-phenylethyl)-1-(3,3,3-trifluoropropyl)thieno[2,3-d]pyrimidine-2,4(1H,3H)-dione]",0.037 µM,0.059 µM
"Cc1c(C(=O)N2CCC(O)CC2)sc2c1c(=O)n(CCc1ccccc1)c(=O)n2CCC=C(F)F [Example 2, 1-(4,4-Difluorobut-3-en-1-yl)-6-[(4-hydroxypiperidin-1-yl)carbonyl]-5-methyl-3-(2-phenylethyl)thieno[2,3-d]pyrimidine-2,4(1H,3H)-dione]",0.044 µM,0.053 µM
"Cc1c(C(=O)N2CCC(O)CC2)sc2c1c(=O)n(CCc1ccccc1F)c(=O)n2CCC(F)(F)F [Example 4, 3-[2-(2-Fluorophenyl)ethyl]-6-[(4-hydroxypiperidin-1-yl)carbonyl]-5-methyl-1-(3,3,3-trifluoropropyl)thieno[2,3-d]pyrimidine-2,4(1H,3H)-dione]",0.025 µM,0.039 µM
"Cc1c(C(=O)N2CCC(O)CC2)sc2c1c(=O)n(CCc1ccccc1Cl)c(=O)n2CCC(F)(F)F [Example 6, 3-[2-(2-Chlorophenyl)ethyl]-6-[(4-hydroxypiperidin-1-yl)carbonyl]-5-methyl-1-(3,3,3-trifluoropropyl)thieno [2,3-d]pyrimidine-2,4(1H,3H)-dione]",0.013 µM,0.027 µM
"Cc1ccccc1CCn1c(=O)c2c(C)c(C(=O)N3CCC(O)CC3)sc2n(CCC(F)(F)F)c1=O [Example 8, 6-[(4-Hydroxypiperidin-1-yl)carbonyl]-5-methyl-3-[2-(2-methylphenyl)ethyl]-1-(3,3,3-trifluoropropyl)thieno[2,3-d]pyrimidine-2,4(1H,3H)-dione]",0.02 µM,0.034 µM
"Cc1c(C(=O)N2CCC(O)CC2)sc2c1c(=O)n(CCc1cccnc1)c(=O)n2CCC=C(F)F [Example 16, 1-(4,4-Difluorobut-3-en-1-yl)-6-[(4-hydroxypiperidin-1-yl)carbonyl]-5-methyl-3-[2-(pyridin-3-yl)ethyl]thieno[2,3-d]pyrimidine-2,4(1H,3H)-dione]",0.038 µM,0.089 µM
"CCn1c(=O)c2c(C)c(C(=O)N3CCC(O)CC3)sc2n(CCC(F)(F)F)c1=O [Example 18, 3-Ethyl-6-[(4-hydroxypiperidin-1-yl)carbonyl]-5-methyl-1-(3,3,3-trifluoropropyl)thieno[2,3-d]pyrimidine-2,4(1H,3H)-dione]",0.057 µM,0.17 µM
"CCn1c(=O)c2c(C)c(C(=O)N3CCC(C)(O)CC3)sc2n(CCC(F)(F)F)c1=O [Example 21, 3-Ethyl-6-[(4-hydroxy-4-methylpiperidin-1-yl)carbonyl]-5-methyl-1-(3,3,3-trifluoropropyl)thieno [2,3-d]pyrimidine-2,4(1H,3H)-dione]",0.025 µM,0.069 µM
"O=C(c1sc2c(c1C(F)(F)F)c(=O)n(CCc1ccccc1)c(=O)n2CCC(F)(F)F)N1CCC(O)CC1 [Example 24, 6-[(4-Hydroxypiperidin-1-yl)carbonyl]-3-(2-phenylethyl)-5-(trifluoromethyl)-1-(3,3,3-trifluoropropyl)thieno[2,3-d]pyrimidine-2,4(1H,3H)-dione]",0.013 µM,0.01 µM
"Cc1c(C(=O)N2CCNC(=O)C2)sc2c1c(=O)n(CCc1ccccc1)c(=O)n2CCC(F)(F)F [Example 26, 5-Methyl-6-[(3-oxopiperazin-1-yl)carbonyl]-3-(2-phenylethyl)-1-(3,3,3-trifluoropropyl)thieno[2,3-d]pyrimidine-2,4(1H,3H)-dione]",0.017 µM,0.053 µM
